Earlier results on one compound are cited in patent publication US20250171403A1 (Synthon B.V., priority 2022, published 2025).

For the data set the following is noted: qualitative, background statement.

In the case of `COc1cc2nccc(Oc3ccc(NC(=O)C4(C(=O)Nc5ccc(F)cc5)CC4)cc3)c2cc1OC` [Cabozantinib, N-[4-(6,7-Dimethoxyquinolin-4-yloxy)phenyl]-N′-(4-fluorophenyl)cyclopropane-1,1-dicarboxamide], the “solubility (prior art, general statement)” value is listed as “poorly soluble”.
